Results reported in patent US10130633B2, “Compounds” (BAYER PHARMA AKTIENGESELLSCHAFT, priority 2013, dated 2018).
Where a name gives a salt, the structure may show the parent alone.

How the values were obtained:
[1] = test system: HCT116 FOP control reporter cell line; assay: HCT116 FOPFlash control reporter assay (FOP control vector, non-functional TCF elements); format: cell-based; conditions: HCT116 FOP control reporter cells, 36 hours incubation, luciferase expression
Description: In a parallel approach, HCT116 cells were cotransfected with the FOP control vector and pcDNA3. The FOP vector is identical to the TOP construct, but it contains instead of functional TCF elements a randomized, non-functional sequence. For this transfection a stable transfected cell line was generated as well.

[2] = test system: constitutive active colorectal cancer cell (CRC) Wnt pathway; assay: HCT116 TOPFlash cellular reporter assay (Super TopFlash luciferase), constitutive active Wnt pathway; format: cell-based; conditions: HCT116 TOP reporter cells, 36 hours incubation, luciferase expression
Method: In order to discover and characterize small molecules which inhibit the constitutive active colorectal cancer cell (CRC) Wnt pathway, a cellular reporter assay was employed. […] Stable transfectants were generated by cotransfection with pcDNA3 and selection of stable transfected cells with 1 mg/ml G418.

Row | SMILES | IC50 ([1]; Homo sapiens, HCT-116, 36 h) [nM] | IC50 ([2]; Homo sapiens, HCT-116, 36 h) [nM] | IC50 [1] [nM] | IC50 [2] [nM]
1 | COc1ccc(NC(=O)c2nnc(-c3ccccc3)s2)cc1NC(=O)CN1CCOCC1 [Example 130, N-{4-methoxy-3-[(morpholin-4-ylacetyl)amino]phenyl}-5-phenyl-1,3,4-thiadiazole-2-carboxamide] | ≥ 50000 | 318 |  | 
2 | CN1CCN(CC(=O)Nc2cc(C(=O)Nc3nnc(-c4ccccc4)s3)ccc2OCC2CC2)CC1 [Example 259, 4-(cyclopropylmethoxy)-3-{[(4-methylpiperazin-1-yl)acetyl]amino}-N-(5-phenyl-1,3,4-thiadiazol-2-yl)benzamide] | ≥ 50000 | 119 |  | 
3 | CC[C@H](C(=O)Nc1cc(C(=O)Nc2nnc(-c3ccccc3)s2)ccc1OC(F)(F)F)N1CCN(C)CC1 [Example 274, 3-{[(2R)-2-(4-methylpiperazin-1-yl)butanoyl]amino}-N-(5-phenyl-1,3,4-thiadiazol-2-yl)-4-(trifluoromethoxy)benzamide] | ≥ 50000 | 3020 |  | 
4 | CN1CCN(C2(C(=O)Nc3cc(C(=O)Nc4nnc(-c5ccccc5)s4)ccc3OC(F)(F)F)CC2)CC1 [Example 52, 3-({[1-(4-methylpiperazin-1-yl)cyclopropyl]carbonyl}amino)-N-(5-phenyl-1,3,4-thiadiazol-2-yl)-4-(trifluoromethoxy)benzamide] | ≥ 50000 | 26.5 |  | 
5 | CC(C(=O)Nc1cc(C(=O)Nc2nnc(-c3ccccc3)s2)ccc1C(F)(F)F)N1CCOCC1 (stereo not drawn) [Example 128, 3-{[2-(morpholin-4-yl)propanoyl]amino}-N-(5-phenyl-1,3,4-thiadiazol-2-yl)-4-(trifluoromethyl)benzamide] | ≥ 50000 | 710 |  | 
6 | Cc1ccccc1-c1nnc(NC(=O)c2ccc(OC3CC3)c(NC(=O)CN3CCOCC3)c2)s1 [Example 266, 4-(cyclopropyloxy)-N-[5-(2-methylphenyl)-1,3,4-thiadiazol-2-yl]-3-[(morpholin-4-ylacetyl)amino]benzamide] | ≥ 50000 | 345 |  | 
7 | CC(C(=O)Nc1cc(NC(=O)c2ccc(-c3cc(F)cc(F)c3)nc2)ccc1OC(F)(F)F)N1C[C@@H]2C[C@H]1CO2 (relative stereo) [Example 185, 6-(3,5-difluorophenyl)-N-[3-({(2R*)-2-[(1S,4S)-2-oxa-5-azabicyclo[2.2.1]hept-5-yl]propanoyl}amino)-4-(trifluoromethoxy)phenyl] nicotinamide] |  |  | 10000 | 160
8 | COCc1ccc(C(=O)Nc2nnc(-c3ccccc3)s2)cc1NC(=O)CN1CCOCC1 [Example 83, 4-(methoxymethyl)-3-[(morpholin-4-ylacetyl)amino]-N-(5-phenyl-1,3,4-thiadiazol-2-yl)benzamide] | ≥ 50000 | 515 |  | 
9 | CN1CCN(CC(=O)Nc2cc(C(=O)Nc3nnc(-c4ccccc4)s3)ccc2CS(C)(=O)=O)CC1 [Example 104, 3-{[(4-methylpiperazin-1-yl)acetyl]amino}-4-[(methylsulfonyl)methyl]-N-(5-phenyl-1,3,4-thiadiazol-2-yl)benzamide] | ≥ 50000 | 2030 |  | 
10 | CN1CCN(CC(=O)Nc2cc(C(=O)Nc3nnc(-c4ccc(F)cc4)s3)ccc2OC(F)(F)F)CC1 [Example 149, N-[5-(4-fluorophenyl)-1,3,4-thiadiazol-2-yl]-3-{[(4-methylpiperazin-1-yl)acetyl]amino}-4-(trifluoromethoxy)benzamide] | 47500 | 704 |  | 
11 | COc1ccc(NC(=O)c2ccc(-c3ccc(F)cc3)nc2)cc1NC(=O)CN1CCOCC1 [Example 229, 6-(4-fluorophenyl)-N-{4-methoxy-3-[(morpholin-4-ylacetyl)amino]phenyl} nicotinamide] | ≥ 50000 | 2300 |  | 
12 | COCc1ccc(C(=O)Nc2nnc(-c3ccccc3)s2)cc1NC(=O)CN1CCN(C2CC2)CC1 [Example 84, 3-{[(4-cyclopropylpiperazin-1-yl)acetyl]amino}-4-(methoxymethyl)-N-(5-phenyl-1,3,4-thiadiazol-2-yl)benzamide] | ≥ 50000 | 453 |  | 
13 | CN1CCN(CC(=O)Nc2cc(C(=O)Nc3nnc(-c4ccc(Cl)cc4)s3)ccc2OC(F)(F)F)CC1 [Example 147, N-[5-(4-chlorophenyl)-1,3,4-thiadiazol-2-yl]-3-{[(4-methylpiperazin-1-yl)acetyl]amino}-4-(trifluoromethoxy)benzamide] | ≥ 50000 | 2200 |  | 
14 | O=C(CN1CC2CCC(C1)O2)Nc1cc(C(=O)Nc2nnc(-c3ccccc3)s2)ccc1OC(F)F [Example 86, 4-(difluoromethoxy)-3-[(8-oxa-3-azabicyclo[3.2.1]oct-3-ylacetyl)amino]-N-(5-phenyl-1,3,4-thiadiazol-2-yl)benzamide] | ≥ 50000 | 890 |  | 
15 | O=C(CN1CCOCC1)Nc1cc(C(=O)Nc2nnc(-c3ccccc3F)s2)ccc1OC(F)(F)F [Example 127, N-[5-(2-fluorophenyl)-1,3,4-thiadiazol-2-yl]-3-[(morpholin-4-ylacetyl)amino]-4-(trifluoromethoxy)benzamide] | ≥ 50000 | 885 |  | 
16 | COc1ccc(NC(=O)c2ccc(-c3ccccc3)[nH]2)cc1NC(=O)CN1CCOCC1 [Example 24, N-{4-methoxy-3-[(morpholin-4-ylacetyl)amino]phenyl}-5-phenyl-1H-pyrrole-2-carboxamide] | ≥ 50000 |  |  | 
17 | O=C(CN1CCOCC1)Nc1cc(NC(=O)c2cc(-c3ccccc3)[nH]n2)ccc1OC(F)(F)F [Example 124, N-{3-[(morpholin-4-ylacetyl)amino]-4-(trifluoromethoxy)phenyl}-5-phenyl-1H-pyrazole-3-carboxamide] | ≥ 50000 |  |  | 
18 | C[C@@H](C(=O)Nc1cc(C(=O)Nc2ccc(-c3ccc(N)cc3)nc2)ccc1OC(F)(F)F)N1CCOCC1 (single isomer, unassigned) [Example 118, N-[6-(4-aminophenyl)pyridin-3-yl]-3-{[(2R)-2-(morpholin-4-yl)propanoyl]amino}-4-(trifluoromethoxy)benzamide or N-[6-(4-aminophenyl)pyridin-3-yl]-3-{[(2S)-2-(morpholin-4-yl)propanoyl]amino}-4-(trifluoromethoxy)benzamide] |  |  | ≥ 50000 | 
19 | CC(C(=O)Nc1cc(C(=O)Nc2nnc(-c3ccccc3)s2)ccc1CS(C)(=O)=O)N1CCN(C)CC1 (stereo not drawn) [Example 230, 3-{[2-(4-methylpiperazin-1-yl)propanoyl]amino}-4-[(methylsulfonyl)methyl]-N-(5-phenyl-1,3,4-thiadiazol-2-yl)benzamide trifluoroacetate (1:1)] |  | 720 |  | 

Results, then the compound that gave them:

Row | IC50 ([1]; Homo sapiens, HCT-116, 36 h) [nM] | IC50 ([2]; Homo sapiens, HCT-116, 36 h) [nM] | IC50 [1] [nM] | IC50 [2] [nM] | SMILES
20 |  |  | 9500 | 87 | CC(C(=O)Nc1cc(NC(=O)c2ccc(-c3cccc(F)c3)nc2)ccc1OC(F)(F)F)N1CCOCC1 (stereo not drawn) [Example 190, 6-(3-fluorophenyl)-N-[3-{[2-(morpholin-4-yl)propanoyl]amino}-4-(trifluoromethoxy)phenyl] nicotinamide]
21 |  |  | 31000 | 192 | CC(C(=O)Nc1cc(C(=O)Nc2ccc(-c3ccccc3F)nc2)ccc1OC(F)(F)F)N1CCN(C2CC2)CC1 (stereo not drawn) [Example 250, 3-{[2-(4-cyclopropylpiperazin-1-yl)propanoyl]amino}-N-[6-(2-fluorophenyl)pyridin-3-yl]-4-(trifluoromethoxy)benzamide]
22 | 44000 |  |  | 288 | CC(C(=O)Nc1cc(C(=O)Nc2ccc(-c3cccc(F)c3)nc2)ccc1OC(F)(F)F)N1CCOCC1 (stereo not drawn) [Example 182, N-[6-(3-fluorophenyl)pyridin-3-yl]-3-{[2-(morpholin-4-yl)propanoyl]amino}-4-(trifluoromethoxy)benzamide]
23 | ≥ 50000 | 85.5 |  |  | C[C@H]1CN(C)CCN1CC(=O)Nc1cc(C(=O)Nc2ccc(-c3ccccc3F)nc2)ccc1OC(F)(F)F [Example 162, 3-({[(2S)-2,4-dimethylpiperazin-1-yl]acetyl}amino)-N-[6-(2-fluorophenyl)pyridin-3-yl]-4-(trifluoromethoxy)benzamide]
24 | 13000 | 139 |  |  | O=C(CN1CCOCC1)Nc1cc(C(=O)Nc2ccc(-c3ccccc3F)nc2)ccc1OC(F)F [Example 237, 4-(difluoromethoxy)-N-[6-(2-fluorophenyl)pyridin-3-yl]-3-[(morpholin-4-ylacetyl)amino]benzamide]
25 | 12400 | 135 |  |  | CC(C(=O)Nc1cc(C(=O)Nc2ccc(-c3cccc(F)c3)nc2)ccc1OC(F)(F)F)N1C[C@@H]2C[C@H]1CO2 (stereo partly drawn) [Example 192, N-[6-(3-fluorophenyl)pyridin-3-yl]-3-({2-[(1S,4S)-2-oxa-5-azabicyclo[2.2.1]hept-5-yl]propanoyl}amino)-4-(trifluoromethoxy)benzamide]
26 | 7200 | 51 |  |  | CC1CN(C)CCN1CC(=O)Nc1cc(C(=O)Nc2ccc(-c3ccccc3F)nc2)ccc1OC(F)(F)F (stereo not drawn) [Example 165, 3-{[(2,4-dimethylpiperazin-1-yl)acetyl]amino}-N-[6-(2-fluorophenyl)pyridin-3-yl]-4-(trifluoromethoxy)benzamide]
27 | ≥ 50000 | 150 |  |  | CSc1ccc(C(=O)Nc2ccc(-c3ccccc3F)nc2)cc1NC(=O)CN1CCOCC1 [Example 138, N-[6-(2-fluorophenyl)pyridin-3-yl]-4-(methylsulfanyl)-3-[(morpholin-4-ylacetyl)amino]benzamide]
28 |  |  | ≥ 50000 |  | CC(C(=O)Nc1cc(C(=O)Nc2nnc(-c3ccccc3)s2)ccc1OC(F)(F)F)N1CCOCC1 (stereo not drawn) [Example 242, 3-{[2-(morpholin-4-yl)propanoyl]amino}-N-(5-phenyl-1,3,4-thiadiazol-2-yl)-4-(trifluoromethoxy)benzamide]
